Assay results published in patent US9126985B2, “Tetra- and pentasubstituted benzimidazolium compounds” (Boehringer Ingelheim International GmbH, priority 2013, dated 2015).
pIC50: −log10 of the molar value.

What was measured:
[1] = biological target: T1, ENaC (Epithelial Sodium Channel) (Mus musculus, UniProt Q61180+Q9WU38+Q9WU39); assay: Ussing Chamber assay: inhibition of amiloride sensitive short circuit current in M-1 cells; assay type: cell-based; conditions: Mouse kidney M-1 cells on transwell filters, compound added to apical solution, 37° C.
T1 construct: Mouse kidney M-1 cells were cultivated in DMEM containing 5% FCS and 5 μM dexamethasone; endogenous in cells; host or cells: mouse kidney M-1 cells
T1 sequence (Q61180 1-699): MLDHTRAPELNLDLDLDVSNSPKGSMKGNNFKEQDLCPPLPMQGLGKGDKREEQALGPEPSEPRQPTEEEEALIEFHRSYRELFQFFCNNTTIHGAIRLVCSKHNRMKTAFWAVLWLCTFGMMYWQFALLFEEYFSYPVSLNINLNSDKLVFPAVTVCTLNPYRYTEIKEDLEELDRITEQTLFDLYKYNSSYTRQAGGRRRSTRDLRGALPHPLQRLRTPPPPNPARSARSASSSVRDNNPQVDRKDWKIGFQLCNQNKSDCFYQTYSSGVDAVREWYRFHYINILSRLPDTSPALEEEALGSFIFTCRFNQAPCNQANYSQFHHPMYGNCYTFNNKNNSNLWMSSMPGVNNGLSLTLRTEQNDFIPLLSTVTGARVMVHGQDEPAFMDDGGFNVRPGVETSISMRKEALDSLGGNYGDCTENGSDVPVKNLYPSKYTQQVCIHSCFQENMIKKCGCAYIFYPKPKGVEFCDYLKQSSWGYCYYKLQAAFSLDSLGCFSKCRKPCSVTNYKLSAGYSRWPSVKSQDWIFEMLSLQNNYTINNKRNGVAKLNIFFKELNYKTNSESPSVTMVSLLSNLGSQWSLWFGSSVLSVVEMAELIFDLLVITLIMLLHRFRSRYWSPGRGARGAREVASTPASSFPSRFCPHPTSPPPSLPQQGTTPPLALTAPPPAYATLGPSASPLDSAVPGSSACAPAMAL
T1 sequence (Q9WU38 1-638): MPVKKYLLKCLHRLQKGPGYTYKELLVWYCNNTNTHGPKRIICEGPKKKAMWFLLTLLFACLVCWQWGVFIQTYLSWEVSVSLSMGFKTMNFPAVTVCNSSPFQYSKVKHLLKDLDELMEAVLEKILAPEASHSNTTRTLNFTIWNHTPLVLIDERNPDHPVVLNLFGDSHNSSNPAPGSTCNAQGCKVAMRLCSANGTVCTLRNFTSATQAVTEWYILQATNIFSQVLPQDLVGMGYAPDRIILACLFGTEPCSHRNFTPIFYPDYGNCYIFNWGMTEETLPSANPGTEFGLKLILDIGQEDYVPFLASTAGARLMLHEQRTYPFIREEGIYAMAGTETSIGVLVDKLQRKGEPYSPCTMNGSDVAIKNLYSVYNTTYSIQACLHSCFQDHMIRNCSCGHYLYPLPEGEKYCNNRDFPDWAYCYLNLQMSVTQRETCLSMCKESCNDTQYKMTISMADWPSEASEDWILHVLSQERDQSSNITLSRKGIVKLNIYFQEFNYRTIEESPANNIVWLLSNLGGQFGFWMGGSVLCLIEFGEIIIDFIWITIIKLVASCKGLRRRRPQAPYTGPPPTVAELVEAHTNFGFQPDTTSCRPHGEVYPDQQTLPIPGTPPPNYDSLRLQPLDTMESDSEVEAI
T1 sequence (Q9WU39 1-655): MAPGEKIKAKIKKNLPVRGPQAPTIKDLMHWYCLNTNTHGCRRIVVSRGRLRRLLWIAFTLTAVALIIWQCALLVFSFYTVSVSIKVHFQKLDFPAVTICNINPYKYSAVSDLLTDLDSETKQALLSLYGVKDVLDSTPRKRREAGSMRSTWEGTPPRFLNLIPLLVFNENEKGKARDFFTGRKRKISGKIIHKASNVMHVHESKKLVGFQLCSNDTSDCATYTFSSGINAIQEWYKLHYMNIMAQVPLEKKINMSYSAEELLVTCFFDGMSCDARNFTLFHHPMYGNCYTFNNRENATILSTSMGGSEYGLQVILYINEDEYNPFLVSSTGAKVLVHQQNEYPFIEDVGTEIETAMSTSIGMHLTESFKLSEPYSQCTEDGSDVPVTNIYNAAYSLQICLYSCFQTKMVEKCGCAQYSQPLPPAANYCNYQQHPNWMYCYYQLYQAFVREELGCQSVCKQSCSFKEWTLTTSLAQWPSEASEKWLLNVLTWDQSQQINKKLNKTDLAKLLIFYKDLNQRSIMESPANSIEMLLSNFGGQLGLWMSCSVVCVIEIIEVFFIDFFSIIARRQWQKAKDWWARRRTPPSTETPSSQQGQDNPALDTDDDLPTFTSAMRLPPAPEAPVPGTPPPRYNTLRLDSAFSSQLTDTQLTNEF
Experimental: Mouse kidney M-1 cells were cultivated in DMEM containing 5% FCS and 5 μM dexamethasone for 10 to 12 days on polyester transwell filters. Filters were inserted into a teflon-coated well-plate which fit into the ussing chamber system. Prior to measurement the medium of M-1 cells was replaced with Caco-2 transport buffer (Invitrogen, Germany). During measurements, the Ussing chamber temperature was kept at 37° C. Short circuit currents (I_sc) were measured in the voltage-clamp mode with the software package Lab View for data acquisition and analysis. The transepithelial electrical resistance (TEER) was determined by the application of voltage steps of ±5 mV every 5 sec. Compounds were administered at a final concentration of 3 μM or at increasing concentrations (1-3-10 μM) to the apical solution. At the end of each experiment the amiloride sensitive I_SC was measured by adding 3 μM amiloride to the apical compartment. Results are expressed as inhibition in percent of the amiloride effect or as IC50.
With the example compounds given above, the following IC50 values were determined in the Ussing Chamber assay: […]

[2] = Permeability in CALU-3 cells; assay type: in vitro ADME; conditions: human, CALU-3 cell monolayers, pH 7.4, 37° C., 10 μM compound; for Papp A→B at 90 min, 10 μM: apical-to-basal; for Papp B→A at 90 min, 10 μM: basal-to-apical
Experimental: Permeability in CALU-3 Cells:
Permeability measurements across polarized, confluent CALU-3 cell monolayers grown on permeable filter supports are used to provide information on the potential of a compound to pass the lung epithelium. Apparent permeability coefficients (Papp) of the compounds across the CALU-3 cell monolayers are measured (pH 7.4, 37° C.) in apical-to-basal (AB) and basal-to-apical (BA) transport direction.
CALU-3 cells (1-2×10^5 cells/1 cm^2 area) are seeded on filter inserts (Costar transwell polycarbonate filters, 0.4 μm pore size) and cultured (for 10-12 days DMEM) until tight monolayers are formed. Compounds of interest are dissolved in appropriate solvent (DMSO, 10 mM stock solution). Stock solutions are diluted with HTP-4 buffer (128.13 mM NaCl, 5.36 mM KCl, 1 mM MgSO4, 1.8 mM CaCl2, 4.17 mM NaHCO3, 1.19 mM Na2HPO4×7H2O, 0.41 mM NaH2PO4×H2O, 15 mM HEPES, 20 mM glucose, 0.25% BSA, pH 7.4) to prepare the transport solutions (10 μM compound, final DMSO<=0.5%). The transport solution (TL) is applied to the apical or basolateral donor side for measuring A-B or B-A permeability (3 filter replicates), respectively. The receiver side contains the same buffer as the donor side. After 30 min of accommodation, samples are collected at the start t0=0 min and at the end of the experiment tn=90 min from the donor and at 0, 30, 60, and 90 min also from the receiver chamber. Volume removed is replenished by HTP-4 buffer. The compound concentration in the samples is measured by HPLC-MS/MS or scintillation counting. The permeability coefficient (Papp) and efflux ratio are calculated according to: Papp [cm/s]=(concentration receiver [nM]*volume receiver [mL]/time interval [sec])*(1/filter area)*(1/donor concentration [nM])
With example compounds given above, the following permeability values were determined in the CALU-3 cells assay: […]

| pIC50 [1] | Papp A→B at 90 min, 10 μM [2] | Papp B→A at 90 min, 10 μM [2] | SMILES |
| --- | --- | --- | --- |
| 7.89 | – | – | CCn1c(CNC(=O)c2nc(Cl)c(N)nc2N)[n+](CC2CCOCC2)c2cc(Cl)c(N(CCO)CCO)cc21 [Example 1.1] |
| 9.00 | 0.5 ×10⁻⁶ cm/s | 0.3 ×10⁻⁶ cm/s | CCn1c(CNC(=O)c2nc(Cl)c(N)nc2N)[n+](CCOCCOCCO)c2ccc(O)cc21 [Example 1.2] |
| 9.00 | 1.3 ×10⁻⁶ cm/s | 0.2 ×10⁻⁶ cm/s | CCn1c(CNC(=O)c2nc(Br)c(N)nc2N)[n+](CCOCCOCCO)c2ccc(O)cc21.O=C([O-])C(F)(F)F [Example 2.1] |
| 8.00 | – | – | CCNC(=O)COc1ccc2c(c1)n(C1CCN(C(C)=O)CC1)c(CNC(=O)c1nc(Cl)c(N)nc1N)[n+]2CC [Example 3.1] |
| 7.51 | – | – | CCn1c(CNC(=O)c2nc(Cl)c(N)nc2N)[n+](CCCC#N)c2ccc(OCCCP(=O)(O)O)cc21 [Example 4.1] |
| 8.52 | – | – | CC[n+]1c(CNC(=O)c2nc(Cl)c(N)nc2N)n(CC2CCN(C(=O)COCCOC)CC2)c2cc([O-])ccc21 [Example 6.1] |

| SMILES | pIC50 [1] | Papp A→B at 90 min, 10 μM [2] | Papp B→A at 90 min, 10 μM [2] |
| --- | --- | --- | --- |
| C=CC[n+]1c(CNC(=O)c2nc(Br)c(N)nc2N)n(CC)c2cc(OCCCP(=O)(OCC)OCC)ccc21 [Example 2.2] | 8.70 | – | – |
| CCOP(=O)(O)CCCOc1ccc2c(c1)n(CC)c(CNC(=O)c1nc(Cl)c(N)nc1N)[n+]2CC1CCOCC1 [Example 5.1] | 8.10 | – | – |
